Biological target: T1, hERG current (Homo sapiens, UniProt Q12809)
T1 construct: expressed in transfected cells; host or cells: CHO-K1 cells expressing hERG (Persson et al., J. Cardiovasc. Electrophysiol. 16, 329-341, 2005)
Experiment: hERG analysis Method 2 (IonWorks HT, CHO cells)
Format: cell-based
Settings: hERG-expressing CHO cells, ~21° C., 8-point non-cumulative curves
Description: The hERG-expressing Chinese hamster ovary K1 (CHO) cells described by (Persson, Carlsson, Duker, & Jacobson, 2005) are grown to semi-confluence at 37° C. in a humidified environment (5% CO2) in F-12 Ham medium containing L-glutamine, 10% foetal calf serum (FCS) and 0.6 mg/mL hygromycin (all available from Sigma-Aldrich). Prior to use, the monolayer is washed using a pre-warmed (37° C.) 3 mL aliquot of Versene 1:5,000 (Invitrogen). After aspiration of this solution the flask is incubated at 37° C. in an incubator with a further 2 mL of Versene 1:5,000 for a period of 6 minutes. Cells are then detached from the bottom of the flask by gentle tapping and 10 mL of Dulbecco's Phosphate-Buffered Saline containing calcium (0.9 mM) and magnesium (0.5 mM) (PBS; Invitrogen) is then added to the flask and aspirated into a 15 mL centrifuge tube prior to centrifugation (50 g, for 4 mins). The resulting supernatant is discarded and the pellet gently re-suspended in 3 mL of PBS. A 0.5 mL aliquot of cell suspension is removed and the number of viable cells (based on trypan blue exclusion) is determined in an automated reader (Cedex; Innovatis) so that the cell re-suspension volume can be adjusted with PBS to give the desired final cell concentration. It is the cell concentration at this point in the assay that is quoted when referring to this parameter. […]

T1 sequence (Q12809 whole entry): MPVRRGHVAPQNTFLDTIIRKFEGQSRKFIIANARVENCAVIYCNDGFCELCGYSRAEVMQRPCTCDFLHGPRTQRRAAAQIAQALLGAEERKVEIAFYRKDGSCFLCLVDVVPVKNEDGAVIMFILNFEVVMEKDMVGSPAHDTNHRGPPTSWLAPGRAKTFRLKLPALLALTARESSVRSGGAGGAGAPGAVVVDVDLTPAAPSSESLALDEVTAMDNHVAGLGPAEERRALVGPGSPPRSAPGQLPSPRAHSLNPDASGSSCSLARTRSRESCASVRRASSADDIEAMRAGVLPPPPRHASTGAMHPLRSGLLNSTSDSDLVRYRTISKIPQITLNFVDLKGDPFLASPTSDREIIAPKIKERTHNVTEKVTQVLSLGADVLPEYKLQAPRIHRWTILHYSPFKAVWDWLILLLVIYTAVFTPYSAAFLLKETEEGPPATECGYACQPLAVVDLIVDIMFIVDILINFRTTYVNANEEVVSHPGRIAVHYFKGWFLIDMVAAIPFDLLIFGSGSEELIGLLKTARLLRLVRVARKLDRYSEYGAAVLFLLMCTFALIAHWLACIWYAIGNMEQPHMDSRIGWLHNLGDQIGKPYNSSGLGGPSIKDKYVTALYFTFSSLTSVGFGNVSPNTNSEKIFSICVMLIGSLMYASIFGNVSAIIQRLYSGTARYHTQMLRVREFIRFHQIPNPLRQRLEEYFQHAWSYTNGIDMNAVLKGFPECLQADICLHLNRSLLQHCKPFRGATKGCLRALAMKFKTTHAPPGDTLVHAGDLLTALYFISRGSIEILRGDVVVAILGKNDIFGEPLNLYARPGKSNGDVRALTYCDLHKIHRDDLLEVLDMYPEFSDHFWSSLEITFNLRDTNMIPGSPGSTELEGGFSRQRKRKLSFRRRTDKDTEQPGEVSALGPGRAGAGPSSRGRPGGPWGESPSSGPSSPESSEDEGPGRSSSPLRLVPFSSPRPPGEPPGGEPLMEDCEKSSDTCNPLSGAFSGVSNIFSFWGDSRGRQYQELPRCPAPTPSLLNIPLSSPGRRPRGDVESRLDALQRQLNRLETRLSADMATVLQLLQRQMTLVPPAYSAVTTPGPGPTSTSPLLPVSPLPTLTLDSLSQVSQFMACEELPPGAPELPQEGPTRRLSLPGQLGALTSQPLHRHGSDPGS

SMILES	IC50
CCCCCNc1nc(N)nc(C)c1Cc1ccc(N2CCN(C)CC2=O)cc1OC [Example 2, 1-(4-{[2-Amino-4-methyl-6-(pentylamino)pyrimidin-5-yl]methyl}-3-methoxyphenyl)-4-methylpiperazin-2-one]	5.41 µM
CCC[C@@H](CCO)Nc1nc(N)nc(C)c1Cc1ccc(N2CCN(C)CC2=O)cc1OC [Example 3, (S)-1-(4-{[2-Amino-4-(1-hydroxyhexan-3-ylamino)-6-methylpyrimidin-5-yl]methyl}-3-methoxyphenyl)-4-methylpiperazin-2-one]	> 33 µM
